This data set in a line: dynamic vapor absorption and desorption analysis (DVS). In kind it is physicochemical. Conditions: for weight gain under 80% relative humidity / hygroscopicity of the sample: DVS, 25° C.; for hygroscopicity of the sample: graded in words; for crystalline form of the sample after the DVS test: XRPD overlay before and after DVS test. On the procedure: The instrument used in dynamic vapor absorption and desorption analysis (DVS) was DVS Intrinsic (SMS, UK). The sample was placed in the sample basket of the instrument for automatic weighing, then heated to 40° C., and dried under a nitrogen stream to a dm/dt of less than 0.002%. The measurement was started after the temperature was dropped to 25° C., The instrument parameters were as follows.
Time per step: 60 min Sample temperature: 25° C. Cycle: entire cycle
Data storage rate: 5 s Total flow rate: 200 sccm Total flow rate after the test: 200 sccm

Counter-ions that a name gives are not always drawn.

As to `C=CC(=O)Nc1cc(Nc2nccc(-c3cn(CC(F)(F)F)c4ccccc34)n2)c(OC)cc1N(C)CCN(C)C` [crystalline form I of succinate], the “weight gain under 80% relative humidity” value is “about 0.57%”, the “hygroscopicity of the sample” value is on record as “slightly hygroscopic” and the “crystalline form of the sample after the DVS test” value is given as “does not change”.
The corresponding values for `C=CC(=O)Nc1cc(Nc2nccc(-c3cn(CC(F)(F)F)c4ccccc34)n2)c(OC)cc1N(C)CCN(C)C` [crystalline form I of sulfate] are “about 3.31%”, “hygroscopic” and “does not change”.
The corresponding values for `C=CC(=O)Nc1cc(Nc2nccc(-c3cn(CC(F)(F)F)c4ccccc34)n2)c(OC)cc1N(C)CCN(C)C` [crystalline form I of p-toluenesulfonate] are “about 0.55%”, “slightly hygroscopic” and “does not change”.
Take `C=CC(=O)Nc1cc(Nc2nccc(-c3cn(CC(F)(F)F)c4ccccc34)n2)c(OC)cc1N(C)CCN(C)C` [crystalline form III of hydrochloride]: the “weight gain under 80% relative humidity” value was “about 1.86%”, the “hygroscopicity of the sample” value is “slightly hygroscopic” and the “crystalline form of the sample after the DVS test” value is recorded as “does not change”.
The matching figures for `C=CC(=O)Nc1cc(Nc2nccc(-c3cn(CC(F)(F)F)c4ccccc34)n2)c(OC)cc1N(C)CCN(C)C` [crystalline form I of phosphate]: “about 0.61%”, “slightly hygroscopic” and “does not change”.
The matching figures for `C=CC(=O)Nc1cc(Nc2nccc(-c3cn(CC(F)(F)F)c4ccccc34)n2)c(OC)cc1N(C)CCN(C)C` [crystalline form I of benzenesulfonate]: “about 0.41%”, “slightly hygroscopic” and “does not change”.

For the origin of these results see patent US20220213066A1, “SALTS OF A CLASS OF PYRIMIDINE COMPOUNDS, POLYMORPHS, AND PHARMACEUTICAL COMPOSITIONS THEREOF, PREAPRATION METHODS THEREFOR AND USES THEREOF” (INVENTISBIO CO., LTD., priority 2019, published 2022).
